Experimental data reported in paper PMC6443668, “Chiral phenoxyacetic acid analogues inhibit colon cancer cell proliferation acting as PPARγ partial agonists” (Scientific Reports, 2019).
Where “and” joins values, the source holds several entries; their conditions need not be identical. Equal values may be shown once. Read-outs that look alike come from different tables or passages of the source.

Legend:
PPARγ1 = target: T1, PPARγ1 (Homo sapiens, UniProt P37231); experiment: PPRE-Luciferase reporter transactivation in HEK293 cells expressing PPARγ1; format: cell-based; settings: for Efficacy: PPARγ transactivation with respect to the full agonist RGZ taken as 100%; for EC50: PPARγ transactivation, PPRE-Luc reporter, HEK293 expressing PPARγ1, 24 hs treatment
T1 construct: a fixed and higher amount of an exogenous, full length PPARγ1; expressed in transfected cells
T1 sequence (P37231 1-477 isoform P37231-2): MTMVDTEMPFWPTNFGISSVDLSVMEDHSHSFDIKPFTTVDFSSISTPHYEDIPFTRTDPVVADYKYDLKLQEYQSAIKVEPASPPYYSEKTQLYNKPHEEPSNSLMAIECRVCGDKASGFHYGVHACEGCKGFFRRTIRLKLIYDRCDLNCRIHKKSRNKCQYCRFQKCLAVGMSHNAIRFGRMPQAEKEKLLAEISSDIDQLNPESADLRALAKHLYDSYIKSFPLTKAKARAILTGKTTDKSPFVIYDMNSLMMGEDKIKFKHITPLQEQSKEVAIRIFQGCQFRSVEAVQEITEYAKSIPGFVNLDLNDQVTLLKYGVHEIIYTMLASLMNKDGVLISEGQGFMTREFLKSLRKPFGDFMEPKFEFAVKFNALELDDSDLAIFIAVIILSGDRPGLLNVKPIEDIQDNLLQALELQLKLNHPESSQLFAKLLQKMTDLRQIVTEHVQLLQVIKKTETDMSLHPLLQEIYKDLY
Protocol: These cells were selected as a model system because they express low levels of the endogenous PPAR subtypes and a fixed and higher amount of an exogenous, full length PPARγ1; the differences in luciferase activity can, thus, be referred to PPARγ1 and to the different ligands used. Twenty-four hours after transfection, cells were treated for additional 24 hs with increasing doses of each compound (Table 2).
HEK293 cells that stably express an exogenous Flag-tagged PPARγ1 from a transfected PCDNA-3 vector carrying a complete PPARγ cDNA were used for transfection experiments. PPRE-Luc plasmid contains a luciferase reporter gene whose transcription is driven by the herpes simplex thymidine kinase (TK) promoter including three copies of the PPRE designed on the sequence of Acyl-CoA oxidase gene. […] The day before transfection, HEK293 stably expressing FLAG-PPARγ1 were plated in 12-well plates to reach 70% confluence. After 24 hs, growth medium was removed and substitute with OPTI-MEM, in absence of serum and antibiotics, and cells were transfected with the luciferase reporter gene (PPRE-Luc) using lipofectamine 2000 reagent as described. […] Transfection assays were performed in triplicate and the resulting transcriptional activities measured by luciferase assay. The values were normalized by β-galactosidase assay and the average value for each triplicate was calculated.

HT-29 cells [1] = experiment: Viability / proliferation assay in HT-29 cells (cell counting); settings: for Residual viability: remaining surviving cells
Description: We then evaluated the antiproliferative potential of the compounds by carrying out viability assays in HT-29, a CRC-derived cell line selected as it expresses substantial amounts of PPARγ1 with respect to the α and β/δ subtypes.
After treatment, the cells were washed with PBS, trypsinized and collected in culture medium. Cells were counted by means of a Burker’s hemocytometer and by automated cell counter (Roche Applied, Penzberg, Germany)[60].
Proliferation assay carried out on HT-29 cells treated or not with the indicated compounds at different concentrations ranging from 1 to 10 µM for 48 hs. HT-29 cells exposed or not to these compounds were harvested, washed with PBS, trypsinized and collected in culture medium. Cell counting was performed by means of a Burker’s hemocytometer. Three counts for each well were made and the mean value and the standard deviation were calculated.

HT-29 cells [2] = experiment: Annexin V-FITC / propidium iodide apoptosis flow cytometry in HT-29 cells; format: cell-based, human; settings: 10 µM, 48 hs
Protocol: (§1) (B) Early (Ann+/PI−) and late (Ann+/PI+) apoptotic cell populations were evaluated and reported in the graphic representation. The bar graphs are the means ± SD of three independent experiments. *p ≤ 0.05, **p ≤ 0.01, ***p ≤ 0.005 compared to the control. […] An anti-β-actin antibody was used as a control for protein loading. Significance is indicated as *p ≤ 0.05 compared to only vehicle. […] It is listed because a value is printed with its label.
(§2) HT-29 cells were plated at similar confluency and synchronized by a 48 h serum deprivation in 0.1% FBS. […] At same time, another aliquot of cells was allowed to grow again in the complete medium containing 0,1% DMSO for the same times and was used as control. After treatment, DNA cell content was evaluated by FACS analysis as previously described. Evaluation of apoptotic cells was performed by staining cell treated or not with 10 μM of the indicated compounds for 48 hs with Annexin5-V-Fitc and propidium iodide. All flow cytometry results were analyzed by FACSuite Software.

p21^waf1/cip1 [3] = experiment: Western blotting of p21waf1/cip1 in HT-29 cells; format: cell-based, human; settings: 10 µM, 48 hs
Protocol: (§3) Data are means ± SD of two independent experiments. *p ≤ 0.05, **p ≤ 0.01 compared to the control. (B) Proliferating HT-29 cells were treated or not for 48 hs with 10 µM of the indicated compounds. Protein extracts were prepared and assessed for p21^waf1/cip1 expression in Western blotting analysis. β-Actin was used for protein load normalization. The bar graphs are the mean ± SD of three independent experiments. **p ≤ 0.01 compared to the control.
(§4) To better characterize the growth inhibition elicited by (R,S)-3, (S)-3 and (R,S)-7, we examined changes in the expression of proteins involved in cell cycle control (Figs 1B and 2A). […] The results paralleled those of the corresponding proteins and all together correlated with the flow cytometric data obtained in the same experimental conditions as reported in Fig. 1.
(§5) Total extracts from treated and untreated cells were obtained by lysis in Ripa buffer (150 mM NaCl, 50 mM Tris-HCl, pH 7.6, 10 mM EDTA, 1% NP-40) containing also a protease inhibitors cocktail and then centrifugated at 17,000 RCF for 10 min, at 4 °C. Total proteins in the supernatant were quantified and 80 μg of each sample were loaded on SDS-PAGE. Western blotting assays were carried out as previously reported.

cyclin D1 = experiment: Western blotting of cyclin D1 in HT-29 cells; format: cell-based, human; settings: 10 µM, 48 hs
Protocol: as §4
Proliferating HT-29 cells were treated for 48 hs with 10 µM of the indicated compounds. Specific antibodies against cyclin D1 (A), c-Myc (B), β-catenin (C) and PPARγ (D) respectively, were used in Western blotting analysis. An anti-β-actin antibody was used as a control for protein loading. The graphs of (A) and (B) represent the means ± SD of three independent experiments. **p ≤ 0.01, ***p ≤ 0.005 compared to the control. The bar graphs of (C,D) are the means ± SD of three independent experiments. *p ≤ 0.05 compared to the control. […] Luciferase activity is reported as fold induction after normalization to β-galactosidase activity used as control of transfection efficiency. […]
as §5, with “Western blotting assays were carried out as previously reported.” left out

β-catenin/TCF pathway = experiment: Top-FLASH reporter luciferase assay in LiCl-induced HEK-293 cells; format: cell-based; settings: HEK-293, Top-FLASH, 20 mM LiCl plus 1 µM compound, 24 hs, relative to LiCl alone
Protocol: (§6) Proliferating HT-29 cells were treated for 48 hs with 10 µM of the indicated compounds. Specific antibodies against cyclin D1 (A), c-Myc (B), β-catenin (C) and PPARγ (D) respectively, were used in Western blotting analysis. An anti-β-actin antibody was used as a control for protein loading. The graphs of (A) and (B) represent the means ± SD of three independent experiments. **p ≤ 0.01, ***p ≤ 0.005 compared to the control. The bar graphs of (C,D) are the means ± SD of three independent experiments. *p ≤ 0.05 compared to the control. […] Luciferase activity is reported as fold induction after normalization to β-galactosidase activity used as control of transfection efficiency. The graph represents the mean ± SD of two independent experiments performed in triplicate. *p ≤ 0.05 compared to LiCl exposure.
To definitely confirm that (R,S)-3 and (S)-3 negatively affect c-Myc and cyclin D1 protein levels through down-regulation of their own gene transcription, we performed the TOP-flash reporter luciferase assay in LiCl-induced HEK-293 cells. […]
The Top-FLASH reporter plasmid containing three copies of TCF binding sites was transiently transfected into HEK293 cells with Lipofectamine 2000 (Invitrogen, Carlsbad, CA, USA) in 24-well plates. […] Luciferase activity was measured after 24 h of compounds treatment and normalized to β-galactosidase. […]

p21^waf1/cip1 [4] = experiment: Western blotting of p21waf1/cip1 in parental RKO cells (no endogenous PPARG); format: cell-based, human; settings: 10 µM, 48 hs
Description: (§7) RKO cells were taken as control for assessing possible effects due to other PPAR receptors expressed at low levels in this cell or to PPARγ-independent effects elicited by GW9662, as reported.
(§8) Figure 4 PPARγ-dependent antiproliferative effect in CRC-derived RKO cells. Western blotting analysis of p21^waf1/cip1 expression in total protein extracts from CRC-derived RKO cells (A) and its derived clone overexpressing an ectopic PPARγ1 (B) using an anti-p21^waf1/cip1 antibody. An anti-β-actin antibody was used as a control for protein loading. The bar graphs represent the mean ± SD of […] of at least 3 independent experiments. *p ≤ 0.05, **p ≤ 0.01 compared to the control.
as §5

c-Myc = experiment: Western blotting of c-Myc in HT-29 cells; format: cell-based, human; settings: 10 µM, 48 hs
Protocol: as §6
(§9) Indeed, cyclin D1 and c-Myc are target genes[38],[39] and, for these reasons, we evaluated c-Myc levels in untreated and treated HT-29 cells. […] Along this reasoning, we investigated β-catenin levels in the same experimental conditions. […]
as §5, with “Western blotting assays were carried out as previously reported.” left out

β-catenin = experiment: Western blotting of β-catenin in HT-29 cells; format: cell-based, human; settings: 10 µM, 48 hs
Protocol: as §6, §9
as §5, with “Western blotting assays were carried out as previously reported.” left out

caspase 3 = experiment: Western blotting of caspase 3 in HT-29 cells; format: cell-based, human; settings: 10 µM, 48 hs
Protocol: as §1, §5

p21^waf1/cip1 [5] = experiment: Western blotting of p21waf1/cip1 in RKO cells stably transfected with PPARG1; format: cell-based, human
Description: as §7, §8, §5

HT-29 cells [6] = experiment: Cell cycle analysis by flow cytometry (propidium iodide) in HT-29 cells; format: cell-based, human; settings: 1 to 25 µM, 48 hs, FACS
Protocol: We then investigated the cell cycle changes underlying the growth inhibition caused by (R,S)-3, (S)-3 and (R,S)-7 treatment. To this goal, HT-29 cells were cultured in proliferating medium for 24 hs and exposed for additional 48 hs to a medium containing different concentrations of the three compounds.
as §3, §2

[7] = read-out: Proliferation IC50, HT-29 cells, concentration range 1 to 25 µM
[8] = Homo sapiens, HT-29, read-out: Proliferation IC50

Row | SMILES | Efficacy (PPARγ1) | EC50 (PPARγ1) [µM] | Residual viability (HT-29 cells [1]; HT-29 cells) [%] | IC50 (HT-29 cells [1]; [7]) [µM] | Apoptosis induction (HT-29 cells [2]) | p21waf1/cip1 protein expression (p21^waf1/cip1 [3]) | cyclin D1 protein level (cyclin D1) | IC50 (HT-29 cells [1]; [8]) [µM] | Luciferase activity remaining on co-treatment with LiCl (β-catenin/TCF pathway) | further results
1 | O=C(O)[C@@H](CCc1ccccc1)Oc1ccc(Cl)cc1 [(R)-1] | 45 ± 1.3% | 0.64 ± 0.06 | 77 ± 3.1 | 19.7 ± 1.7 | – | – | – | – | – | –
2 | O=C(O)C(CCCCc1ccccc1)Oc1ccc(Cl)cc1 (racemic) [(R,S)-4] | 60 ± 1.1% | 0.35 ± 0.07 | 60 ± 0.5 | 10.1 ± 0.4 | – | – | – | – | – | –
3 | CN(CCOc1ccc(CC2SC(=O)NC2=O)cc1)c1ccccn1 (centres unmarked) [RGZ, rosiglitazone, reference compound] | – | – | – | – | stimulated apoptosis | slight | reduction | 9.8 ± 0.4 | 80% | –
4 | O=C(O)[C@H](CCCc1ccc(Cl)cc1)Oc1ccc(Cl)cc1 [(S)-3] | 55% and 55 ± 1.2% | 0.4 ± 0.05 | 31 ± 1.3 | – | stimulated apoptosis | robust increase | reduction more evident | 4.8 ± 0.35 | about 60% | p21waf1/cip1 expression (p21^waf1/cip1 [4]): no p21^waf1/cip1 variations; c-Myc protein level (c-Myc): reduction; β-catenin protein level (β-catenin): reduction; Caspase 3 activation (precursor reduced, cleaved form increased) (caspase 3): strongest effect; p21waf1/cip1 expression (p21^waf1/cip1 [5]; RKO clone expressing exogenous PPARγ1, 10 µM, 48 hs): induced accumulation; Cell cycle changes (HT-29 cells [6]): significant increase of cells in the sub G0/G1 phase
5 | O=C(O)C(CCCc1ccccc1)Oc1ccc(Cl)cc1 (racemic) [(R,S)-2] | 48 ± 2.1% | 0.54 ± 0.1 | 70 ± 2.5 | 12.1 ± 1.2 | – | – | – | – | – | –
6 | O=C(Nc1ccccc1)c1cc([N+](=O)[O-])ccc1Cl [GW9662, reference compound] | – | – | – | – | – | – | – | – | – | Effect of the antagonist on compound-induced p21waf1/cip1 accumulation (p21^waf1/cip1 [5]; RKO clone expressing PPARγ1, co-treatment with (R,S)-3, (S)-3 or (R,S)-7): reverted the effect
